Source: patent US12186289B2, “Compositions for feeding a pregnant animal” (Nutreco IP Assets B.V., priority 2018, dated 2025)

Tested on: sows
Experiment: Example 1: top dress with a single ingredient fed to pregnant sows from day 80 of gestation to parturition; colostrum intake and gain of litters
Type: in vivo, pigs
Details: for Total colostrum intake per litter / Average daily gain to day 7, kg per litter: corrected for litter size, sorbic acid 5 g; for Total colostrum intake per litter: 100 g/day top dress, day 80 of gestation up to parturition, betaine 3 g daily, estimated by Theil et al. algorithm; for Average daily gain to day 7, kg per litter: betaine 3 g daily in 100 g top dress

Structure (SMILES) | Average daily gain to day 7 compared to the control (in words) | Colostrum intake per litter compared to the control (in words) | Total colostrum intake per litter [g] | Average daily gain to day 7, kg per litter [kg per litter]
C[N+](C)(C)CC(=O)[O-] [Betaine, trimethylglycine] | negative effect | substantially lower | 5784 | 16.1
CC=CC=CC(=O)O [Sorbic acid, 2,4-hexadienoic acid] | same result as the control | slightly lower | 6227 | 18.2
